Experimental data as given in article PMC11357054, “Azobenzenesulfonamide Carbonic Anhydrase Inhibitors as New Weapons to Fight Helicobacter pylori: Synthesis, Bioactivity Evaluation, In Vivo Toxicity, and Computational Studies” (Pharmaceuticals, 2024).
Values after ≈ are worked out from the molar mass of the structure shown. Where two headings read alike, the source gives them in different places.

What was measured:
[1] = biological target: T1, EcoβCA (Escherichia coli, UniProt P61517); experiment: stopped-flow CO2 hydration; format: biochemical; conditions: read-out: KI (nM) * / Bacterial Isoforms / Eco βCA
T1 construct: gene can; recombinant, obtained in-house
T1 sequence (P61517 whole entry, canonical isoform): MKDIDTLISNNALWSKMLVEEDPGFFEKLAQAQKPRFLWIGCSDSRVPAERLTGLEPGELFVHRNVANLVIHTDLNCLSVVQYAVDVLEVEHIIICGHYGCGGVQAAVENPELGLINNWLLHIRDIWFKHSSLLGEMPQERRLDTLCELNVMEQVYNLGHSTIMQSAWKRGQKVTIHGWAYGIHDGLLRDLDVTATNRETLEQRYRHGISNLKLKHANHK

[2] = biological target: T2, PsCA3 (Pseudomonas aeruginosa, UniProt Q9HVB9); experiment: stopped-flow CO2 hydration; format: biochemical; conditions: read-out: KI (nM) * / Bacterial Isoforms / Ps CA3
T2 construct: gene PA4676; recombinant, obtained in-house
T2 sequence (Q9HVB9 1-215): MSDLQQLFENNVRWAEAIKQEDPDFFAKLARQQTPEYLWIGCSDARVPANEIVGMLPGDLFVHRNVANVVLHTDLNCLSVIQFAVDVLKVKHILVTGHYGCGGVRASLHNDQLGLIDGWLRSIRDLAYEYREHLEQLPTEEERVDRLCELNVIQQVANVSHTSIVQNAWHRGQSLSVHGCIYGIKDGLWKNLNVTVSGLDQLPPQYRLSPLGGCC

[3] = biological target: T3, hCA II (Homo sapiens, UniProt P00918); experiment: stopped-flow CO2 hydration; format: biochemical; conditions: read-out: KI (nM) * / Human Isoforms / hCA II
T3 construct: gene CA2; purchased from Merck
Description: stopped-flow CO2 hydration on hCA II

[4] = biological target: T4, PgiγCA; experiment: stopped-flow CO2 hydration; format: biochemical, Porphyromonas gingivalis; conditions: pH […] HEPES, […] Na2SO4, […] min preincubation, r.t.; read-out: KI (nM) * / Bacterial Isoforms / Pgi γCA
T4 construct: gene PgiCA; recombinant, obtained in-house

[5] = biological target: T5, hCA I (Homo sapiens, UniProt P00915); experiment: stopped-flow CO2 hydration; format: biochemical; conditions: read-out: KI (nM) * / Human Isoforms / hCA I
T5 construct: gene CA1; purchased from Merck
T5 sequence (P00915 2-261): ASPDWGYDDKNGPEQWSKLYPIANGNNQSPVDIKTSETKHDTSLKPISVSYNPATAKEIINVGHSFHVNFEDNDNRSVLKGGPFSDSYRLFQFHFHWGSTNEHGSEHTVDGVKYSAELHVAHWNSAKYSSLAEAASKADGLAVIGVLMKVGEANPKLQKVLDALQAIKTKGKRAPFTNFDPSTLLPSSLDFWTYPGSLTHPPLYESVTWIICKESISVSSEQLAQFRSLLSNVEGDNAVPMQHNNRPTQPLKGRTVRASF
Description: stopped-flow CO2 hydration on hCA I

[6] = biological target: T6, HpαCA (Helicobacter pylori, UniProt B5Z8I0); experiment: stopped-flow CO2 hydration; format: biochemical
T6 construct: gene HPG27_1129; recombinant, obtained in-house; PDB 4XFW is given for docking only
T6 sequence (B5Z8I0 22-247): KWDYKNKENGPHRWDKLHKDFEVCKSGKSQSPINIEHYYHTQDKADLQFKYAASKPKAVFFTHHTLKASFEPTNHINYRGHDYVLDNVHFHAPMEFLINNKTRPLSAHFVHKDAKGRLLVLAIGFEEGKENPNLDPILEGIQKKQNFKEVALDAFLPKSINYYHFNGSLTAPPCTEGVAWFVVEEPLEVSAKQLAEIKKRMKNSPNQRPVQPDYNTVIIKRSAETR

[7] = biological target: T7, hCA IX (Homo sapiens, UniProt Q16790); experiment: stopped-flow CO2 hydration; format: biochemical; conditions: read-out: KI (nM) * / Human Isoforms / hCA IX
T7 construct: gene CA9
Description: stopped-flow CO2 hydration on hCA IX

[8] = biological target: T8, PgiβCA; experiment: stopped-flow CO2 hydration; format: biochemical, Porphyromonas gingivalis; conditions: pH […] HEPES, […] Na2SO4, […] min preincubation, r.t.; read-out: KI (nM) * / Bacterial Isoforms / Pgi βCA
T8 construct: gene PgiCAb; recombinant, obtained in-house

[9] = biological target: T9, hCA XII (Homo sapiens, UniProt O43570); experiment: stopped-flow CO2 hydration; format: biochemical; conditions: read-out: KI (nM) * / Human Isoforms / hCA XII
T9 construct: gene CA12
T9 sequence (O43570 30-289 limits assumed): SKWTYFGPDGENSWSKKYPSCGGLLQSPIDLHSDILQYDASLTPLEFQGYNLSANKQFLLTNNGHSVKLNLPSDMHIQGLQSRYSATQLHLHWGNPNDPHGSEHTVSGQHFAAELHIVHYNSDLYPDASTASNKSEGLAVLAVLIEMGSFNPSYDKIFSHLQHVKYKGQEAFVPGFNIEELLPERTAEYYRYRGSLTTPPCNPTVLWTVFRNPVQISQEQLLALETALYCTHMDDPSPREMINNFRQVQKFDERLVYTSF
Description: stopped-flow CO2 hydration on hCA XII

[10] = system: T10, H. pylori ATCC 43504; experiment: microbe, parasite or virus in culture; set-up: species or system Helicobacter pylori ATCC 43504; MIC by broth microdilution, alamarBlue and CFU count; MBC by CFU count; conditions: Helicobacter pylori, ATCC43504
T10 construct: ATCC 43504
Protocol: H. pylori ATCC 43504 was cultured on a Columbia Agar base (Becton Dickinson and Company, Franklin Lakes, NJ, USA) supplemented with 10% horse serum (Merck, St. Louis, MO, USA) and 0.25% yeast extract (Oxoid Ltd., Hampshire, UK), incubated at 37 °C for 72 h in a microaerophilic atmosphere (CampyGen, Thermo Fisher Scientific, Milan, Italy). Colonies were collected and transferred into 10 mL of Brain Heart Infusion broth (BHI, Oxoid Ltd., Hampshire, UK) supplemented with 5% (v/v) of fetal bovine serum (FBS, Merck, Milan, Italy) and incubated overnight at 37 °C, at 125 rpm under microaerophilic conditions. After 18 h of incubation, the broth culture was diluted to obtain a bacterial suspension of 10^6 CFU/mL. MICs were determined by three different assays: the broth micro-dilution method, the alamarBlue assay, and the CFU count. […] This bacterium was selected based on the inhibitory potency evidenced by the two series of azobenzenesulfonamides against the HpCAs.

[11] = biological target: T11, HpβCA (Helicobacter pylori, UniProt Q9ZN54); experiment: stopped-flow CO2 hydration; format: biochemical; conditions: read-out: KI (nM) * / Bacterial Isoforms / Hp βCA
T11 construct: gene cynT; recombinant, obtained in-house
T11 sequence (Q9ZN54 1-221): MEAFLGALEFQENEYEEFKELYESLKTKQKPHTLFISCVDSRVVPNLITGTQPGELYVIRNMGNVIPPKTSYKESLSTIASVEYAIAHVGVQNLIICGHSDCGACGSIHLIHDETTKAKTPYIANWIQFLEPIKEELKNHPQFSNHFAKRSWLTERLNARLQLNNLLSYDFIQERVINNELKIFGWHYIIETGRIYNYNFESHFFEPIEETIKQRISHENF

[12] = biological target: T3, hCA II; experiment: biochemical; conditions: read-out: Human Isoforms / hCA II
Protocol: (§1) An Applied Photophysics stopped-flow instrument was used to evaluate the ability of the test compounds to inhibit CA-catalyzed CO2 hydration. […] The CO2 concentrations ranged from 1.7 to 17 mM for the determination of the kinetic parameters and inhibition constants. Enzyme concentrations spanned from 5 to 12 nM. Stock solutions of the inhibitor (0.1 mM) were prepared in distilled–deionized water, and dilutions up to 0.01 nM were prepared with the assay buffer. Inhibitor and enzyme solutions were preincubated for 15 min at r.t. for the formation of the E–I complex. The inhibition constants were obtained by non-linear least-squares methods using PRISM 3 and the Cheng–Prusoff equation and represent the mean from at least three different determinations. Apart from human CAs I and II purchased from Merck, all the bacterial CAs were recombinant and obtained in-house. Compounds 4a–j and 5a–j were tested on a large panel of human and bacterial isoenzymes belonging to different CA families, evaluating their inhibitory activity through the CO2 hydration activity assay by means of the stopped-flow technique, and the inhibitory constants (KIs) are reported in Table 1 and Table 2, respectively. In particular, we tested the hypoxic tumor-associated hCAs IX and XII, and bacterial isoforms involved in several infectious diseases, such as those caused by H. pylori (HpαCA and HpβCA), Porphyromonas gingivalis (PgiβCA and PgiγCA), Escherichia coli (EcoβCA), Pseudomonas aeruginosa (PsCA3, belonging to the β-class), Mammaliicoccus (Staphylococcus) sciuri (MscCA, belonging to the β-class), and Streptococcus mutans (SmuCA, belonging to the β-class). The inhibition of human physiologically relevant isoforms I and II was also investigated in order to assess the compounds’ selectivity. Our main aim was to rationalize the structural requirements of sulfonamide-containing compounds useful for targeting HpCAs, in order to gain a larger knowledge for further optimization studies focusing on isoform selectivity. In fact, although the tested human and bacterial isoforms present a low degree of sequence similarity, they catalyze the same reaction and contain the catalytically active zinc ion in the active site. Thus, a comparison of the data obtained from different members of this large superfamily has a high relevance in the field. By observing Table 1 and Table 2, interesting structure–activity relationship (SAR) considerations can be inferred.

[13] = biological target: T7, hCA IX; experiment: biochemical; conditions: read-out: Human Isoforms / hCA IX
Protocol: as §1

[14] = biological target: T5, hCA I; experiment: biochemical; conditions: read-out: Human Isoforms / hCA I
Protocol: as §1

[15] = biological target: T2, PsCA3; experiment: biochemical; conditions: read-out: Bacterial Isoforms / Ps CA3
Protocol: as §1

[16] = biological target: T1, EcoβCA; experiment: biochemical; conditions: read-out: Bacterial Isoforms / Eco βCA
Protocol: as §1

[17] = biological target: T9, hCA XII; experiment: biochemical; conditions: read-out: Human Isoforms / hCA XII
Protocol: as §1

[18] = read-out: KI (nM) / Bacterial Isoforms / Hp αCA

For `Cc1cc(O)ccc1/N=N/c1ccc(S(N)(=O)=O)cc1` [4j, (E)-4-((4-hydroxy-2-methylphenyl)diazenyl)benzenesulfonamide], the Ki [1] was 3040 nM, the Ki [2] was 1840 nM and the Ki [3] was 4.7 nM. The Ki [4] was 914 nM, the Ki [5] was 5.3 nM and the Ki ([6]; read-out: KI (nM) * / Bacterial Isoforms / Hp αCA) was 72.2 nM. It also gave a Ki [7] of 213 nM, a Ki [8] of 5780 nM and a Ki [9] of 84.1 nM. It also gave an MBC [10] of 32 µg/mL (≈ 110 µM), an MIC [10] of 16 µg/mL (≈ 54.9 µM) and a Ki [11] of 138 nM.
In the case of `O=S(=O)(Nc1ccc(N=Nc2ccccc2)cc1)c1ccccc1` [5a], the Ki [12] is reported as over 100 µM, the Ki [13] is reported as 3.98 µM and the Ki [14] is reported as 0.209 µM. For the same compound, the Ki [15] was 9.28 µM, the Ki [16] was 6.95 µM and the Ki [17] was 0.955 µM. It also gave a Ki [6, 18] of 460 nM, an MBC [10] of 32 µg/mL (≈ 94.8 µM) and an MIC [10] of 16 µg/mL (≈ 47.4 µM).
With `N#Cc1ccc(S(=O)(=O)Nc2ccc(N=Nc3ccccc3)cc2)cc1` [5b] the Ki [12] was over 100 µM, the Ki [13] was 0.614 µM and the Ki [14] was 0.359 µM. It also gave a Ki [15] of 5.76 µM, a Ki [16] of 73.4 µM and a Ki [17] of 0.76 µM. It also gave a Ki [6, 18] of 75.6 nM, an MBC [10] of 64 µg/mL (≈ 177 µM) and an MIC [10] of 32 µg/mL (≈ 88.3 µM).
Work on `N#Cc1ccc(S(=O)(=O)Nc2ccc(N=Nc3ccccc3)cc2)c(Cl)c1` [5c] yielded a Ki [12] of 24.7 µM, a Ki [13] of 9.2 µM and a Ki [14] of 0.908 µM. For the same compound, the Ki [15] was over 100 µM, the Ki [16] was 9.21 µM and the Ki [17] was 1.75 µM. It also gave a Ki [6, 18] of 77.6 nM, an MBC [10] of 8 µg/mL (≈ 20.2 µM) and an MIC [10] of 4 µg/mL (≈ 10.1 µM).
For `O=[N+]([O-])c1cccc(S(=O)(=O)Nc2ccc(N=Nc3ccccc3)cc2)c1` [5d], the Ki [12] was over 100 µM, the Ki [13] was 0.601 µM and the Ki [14] was 6.75 µM. It also gave a Ki [15] of 90.2 µM, a Ki [16] of 9.08 µM and a Ki [17] of 0.215 µM. It also gave a Ki [6, 18] of 70.9 nM, an MBC [10] of 64 µg/mL (≈ 167 µM) and an MIC [10] of 16 µg/mL (≈ 41.8 µM).
With `Cc1ccc(S(=O)(=O)Nc2ccc(N=Nc3ccccc3)cc2)cc1[N+](=O)[O-]` [5e] the Ki [12] was over 100 µM, the Ki [13] was 0.792 µM and the Ki [14] was 0.853 µM. For the same compound, the Ki [15] was over 100 µM, the Ki [16] was 59 µM and the Ki [17] was 0.847 µM. For the same compound, the Ki [6, 18] was 604 nM, the MBC [10] was 16 µg/mL (≈ 40.4 µM) and the MIC [10] was 8 µg/mL (≈ 20.2 µM).
Compound `COc1ccc(S(=O)(=O)Nc2ccc(N=Nc3ccccc3)cc2)c(OC)c1` [5f] has a Ki [12] of over 100 µM, a Ki [13] of 5.74 µM and a Ki [14] of 0.905 µM. The Ki [15] was over 100 µM, the Ki [16] was 77.7 µM and the Ki [17] was 0.894 µM. For the same compound, the Ki [6, 18] was 71.3 nM, the MBC [10] was 4 µg/mL (≈ 10.1 µM) and the MIC [10] was 4 µg/mL (≈ 10.1 µM).
Compound `O=S(=O)(Nc1ccc(N=Nc2ccccc2)cc1)c1ccc(Cl)s1` [5g] has a Ki [12] of over 100 µM, a Ki [13] of 4.04 µM and a Ki [14] of 0.905 µM. It also gave a Ki [15] of over 100 µM, a Ki [16] of 59.2 µM and a Ki [17] of 4.12 µM. The Ki [6, 18] was 55.8 nM, the MBC [10] was 16 µg/mL (≈ 42.3 µM) and the MIC [10] was 16 µg/mL (≈ 42.3 µM).
`O=S(=O)(Cc1ccccc1)Nc1ccc(N=Nc2ccccc2)cc1` [5h] was tested, and the Ki [12] was over 100 µM, the Ki [13] was 4.49 µM and the Ki [14] was 5.53 µM. The Ki [15] was over 100 µM, the Ki [16] was 88.5 µM and the Ki [17] was 2.25 µM. The Ki [6, 18] was 79 nM, the MBC [10] was 128 µg/mL (≈ 364 µM) and the MIC [10] was 64 µg/mL (≈ 182 µM).
In the case of `CCS(=O)(=O)Nc1ccc(N=Nc2ccccc2)cc1` [5j], the Ki [12] is reported as over 100 µM, the Ki [13] is reported as 7.07 µM and the Ki [14] is reported as 0.931 µM. For the same compound, the Ki [15] was 69.8 µM, the Ki [16] was over 100 µM and the Ki [17] was 3.34 µM. For the same compound, the Ki [6, 18] was 68.4 nM, the MBC [10] was 16 µg/mL (≈ 55.3 µM) and the MIC [10] was 16 µg/mL (≈ 55.3 µM).
